Legend:
[1] = molecular target: T1, Glutamate receptor ionotropic, AMPA (Rattus norvegicus) (UniProt P19491+P19492+P19493+P19490); test: Concentration of drug giving a 2-fold increase of the magnitude of the current induced by Ionotropic glutamate receptor AMPA (30 uM) and measured in Xenopus Oocytes expressing Rat Cortex AMPA Receptors; assay type: functional, cell-based
[2] = molecular target: T1, Glutamate receptor ionotropic, AMPA (Rattus norvegicus); test: concentration of drug giving a 5-fold increase of the magnitude of the current induced by Ionotropic glutamate receptor AMPA (30 uM) and measured in Xenopus Oocytes expressing Rat Cortex AMPA Receptors; assay type: functional, cell-based
Rattus norvegicus [3] = species: Rattus norvegicus; test: Residual insulin release from rat pancreatic islets incubated in the presence of an insulinotropic […] glucose concentration and at a 50 uM concentration of drug; assay type: functional
[4] = Partition coefficient was measured in between 1-octanol and aqueous buffer solution of pH 7.4; assay type: physicochemical; conditions: 1-octanol/aqueous buffer
Rattus norvegicus [5] = species: Rattus norvegicus; test: Effect on duration of the postsynaptic excitatory potentials induced by electric stimulation in rat hippocampal slices; assay type: functional, Hippocampus
Rattus norvegicus [6] = species: Rattus norvegicus; test: Effect on amplitude of the postsynaptic excitatory potentials induced by electric stimulation in rat hippocampal slices; assay type: functional, Hippocampus
[7] = Ratio between the D50 value and the A50 value; assay type: functional
Rattus norvegicus [8] = species: Rattus norvegicus; test: Concentration for 50 percent increase of the amplitude (A50) of the postsynaptic excitatory potentials induced by electric stimulation in rat hippocampal slices; assay type: functional, Hippocampus
Rattus norvegicus [9] = species: Rattus norvegicus; test: Concentration for 50 percent increase of the duration (D50) of the postsynaptic excitatory potentials induced by electric stimulation in rat hippocampal slices; assay type: functional, Hippocampus

Row | Compound | EC2x [1] [µM] | EC5X [2] [µM] | also measured
1 | CCCN1CN(C)c2ccncc2S1(=O)=O | > 1000 | > 1000 | –
2 | CC1Nc2ccncc2S(=O)(=O)N1C (stereo not given) | 214 | 381 | –
3 | O=S1(=O)NCN(CC(F)(F)F)c2ccncc21 | 110 | 215 | –
4 | CCC(CC)C1Nc2ccncc2S(=O)(=O)N1 (stereo not given) | > 1000 | > 1000 | –
5 | CC(C)N1CNS(=O)(=O)c2cnccc21 | 94 | 237 | RIS (Rattus norvegicus [3]): 101%
6 | CN1C=NS(=O)(=O)c2ncccc21 | 265 | 645 | –
7 | CC1=NS(=O)(=O)c2ncccc2N1 | 400 | 900 | logD [4]: -0.91; RIS (Rattus norvegicus [3]): 98.7%
8 | CC(C)N1CNc2ccncc2S1(=O)=O | > 300 | > 300 | –
9 | NS(=O)(=O)c1cc2c(cc1Cl)NC(C1CC3C=CC1C3)NS2(=O)=O (stereo not given) [CYCLOTHIAZIDE] | 1.6 | 9.8 | D50 (Rattus norvegicus [5]): >300 µM; A50 (Rattus norvegicus [6]): >300 µM
10 | O=S1(=O)NCNc2ccncc21 | > 1000 | > 1000 | –
11 | O=S1(=O)NCN(C2CCCCC2)c2ccncc21 | > 1000 | > 1000 | –
12 | O=S1(=O)N=CNc2cccnc21 | > 1000 | > 1000 | –
13 | CC1=NS(=O)(=O)c2cnccc2N1C(C)C | 500 | 1200 | –
14 | CC1Nc2ccncc2S(=O)(=O)N1 (stereo not given) | 500 | > 1000 | logD [4]: 0.13; RIS (Rattus norvegicus [3]): 93.6%
15 | CC1NS(=O)(=O)c2cnccc2N1C (stereo not given) | 150 | 450 | –
16 | CCCC1Nc2ccncc2S(=O)(=O)N1 (stereo not given) | > 1000 | > 1000 | –
17 | O=S1(=O)NCNc2cccnc21 | 300 | 1100 | –
18 | CCC(C)NC1=NS(=O)(=O)c2cnccc2N1 (stereo not given) | > 1000 | > 1000 | RIS (Rattus norvegicus [3]): 9.4%
19 | CN1CN(C)S(=O)(=O)c2ncccc21 | 39 | 133 | –

Row | Compound | EC2x [1] [µM] | EC5X [2] [µM] | also measured
20 | CC1=NS(=O)(=O)c2cccnc2N1C | 800 | > 1000 | –
21 | CC1=NS(=O)(=O)c2cccnc2N1 | > 1000 | > 1000 | logD [4]: -0.25; RIS (Rattus norvegicus [3]): 92.8%
22 | O=S1(=O)N=CNc2ccncc21 | > 1000 | > 1000 | –
23 | CN1CNS(=O)(=O)c2ncccc21 | 21 | 51 | D50 (Rattus norvegicus [5]): 48 µM; A50 (Rattus norvegicus [6]): 79 µM; Ratio [7]: 0.6
24 | CC(C)N1CNS(=O)(=O)c2ncccc21 | 27 | 41 | –
25 | CN1CNS(=O)(=O)c2cnccc21 | 63 | 283 | D50 (Rattus norvegicus [5]): 130 µM; A50 (Rattus norvegicus [6]): 216 µM; RIS (Rattus norvegicus [3]): 95.8%; Ratio [7]: 0.6
26 | CC1=NS(=O)(=O)c2cnccc2N1C | 250 | 800 | –
27 | CC1=Nc2ccc(Cl)cc2S(=O)(=O)N1 [DIAZOXIDE] | 448 | > 1000 | A50 (Rattus norvegicus [8]): >500 µM; D50 (Rattus norvegicus [9]): >500 µM; RIS (Rattus norvegicus [3]): 28.8%
28 | CC1=NS(=O)(=O)c2cnccc2N1 | > 1000 | > 1000 | logD [4]: -0.41; RIS (Rattus norvegicus [3]): 100%
29 | CN1CNS(=O)(=O)c2cccnc21 | 200 | 500 | –
30 | CCCCCN1CNc2ccncc2S1(=O)=O | > 100 | > 100 | –
31 | CC1Nc2cccnc2S(=O)(=O)N1 (stereo not given) | 114 | 270 | logD [4]: -0.2; D50 (Rattus norvegicus [5]): 100 µM; A50 (Rattus norvegicus [6]): 154 µM; RIS (Rattus norvegicus [3]): 81%; Ratio [7]: 0.65
32 | CCCNC1=NS(=O)(=O)c2cnccc2N1 | > 1000 | > 1000 | RIS (Rattus norvegicus [3]): 57.7%
33 | CCN1C=NS(=O)(=O)c2ncccc21 | 96 | 186 | –
34 | CN1CNc2ccncc2S1(=O)=O | > 1000 | > 1000 | –
35 | CCN1CNS(=O)(=O)c2cnccc21 | 55 | 195 | D50 (Rattus norvegicus [5]): 137 µM; A50 (Rattus norvegicus [6]): 222 µM; Ratio [7]: 0.6
36 | CCN1CN(CC)S(=O)(=O)c2ncccc21 | 87 | 220 | –
37 | CC(C)N1CN(C)S(=O)(=O)c2cnccc21 | > 1000 | > 1000 | –
38 | CCCCN1CNS(=O)(=O)c2cnccc21 | 800 | > 1000 | –

Row | Compound | EC2x [1] [µM] | EC5X [2] [µM] | also measured
39 | O=S1(=O)c2cnccc2NCN1C1CCCCC1 | > 100 | > 100 | –
40 | O=S1(=O)NCNc2ncccc21 | > 1000 | > 1000 | –
41 | CN1CN(C)S(=O)(=O)c2cnccc21 | 300 | > 1000 | –
42 | CCC1NS(=O)(=O)c2cnccc2N1C (stereo not given) | 800 | > 1000 | –
43 | CCCN1CNS(=O)(=O)c2cnccc21 | 300 | 805 | –
44 | CCN1CN(C)S(=O)(=O)c2ncccc21 | 38 | 96 | –
45 | O=S1(=O)c2cnccc2NCN1c1ccccc1 | > 100 | > 100 | –
46 | CN1CNc2cccnc2S1(=O)=O | 341 | 766 | –
47 | O=S1(=O)NC(c2ccccc2)Nc2ccncc21 (stereo not given) | > 1000 | > 1000 | –
48 | CCC1Nc2ccncc2S(=O)(=O)N1 (stereo not given) | > 1000 | > 1000 | –
49 | CC(C)C(C)NC1=NS(=O)(=O)c2cnccc2N1 (stereo not given) | > 1000 | > 1000 | RIS (Rattus norvegicus [3]): 8.6%
50 | O=S1(=O)N=CNc2ncccc21 | > 1000 | > 1000 | –
51 | NC1=NS(=O)(=O)c2cnccc2N1 | > 1000 | > 1000 | RIS (Rattus norvegicus [3]): 104%
52 | CC(C)C1Nc2ccncc2S(=O)(=O)N1 (stereo not given) | > 1000 | > 1000 | –
53 | O=S1(=O)N=C(C(F)(F)F)Nc2ccncc21 | > 1000 | > 1000 | –
54 | CC1Nc2ncccc2S(=O)(=O)N1 (stereo not given) | > 1000 | > 1000 | logD [4]: 0.35; RIS (Rattus norvegicus [3]): 94.8%
55 | CCC1=NS(=O)(=O)c2cnccc2N1 | > 1000 | > 1000 | –
56 | O=S1(=O)NC(C2CCCCC2)Nc2ccncc21 (stereo not given) | > 1000 | > 1000 | –
57 | COc1ccc(C(=O)N2CCCC2=O)cc1 | 1440 | > 3000 | D50 (Rattus norvegicus [5]): >2000 µM
